Assay results: patent publication US7241794B2, “Nonnucleoside reverse transcriptase inhibitors” (RochePalo Alto LLC, priority 2003, dated 2007)

Key:
HIV-1 RT = HIV-1 RT (Human immunodeficiency virus type 1 group M subtype B, UniProt P03366); assay: HIV Reverse Transcriptase Assay: Inhibitor IC50 Determination; type: biochemical; conditions: purified recombinant enzyme, poly(rA)/oligo(dT)16 template-primer; read-out: IC50(μM) RTI
Protocol: HIV Reverse Transcriptase Assay: Inhibitor IC50 Determination
HIV-1 RT assay was carried out in 96-well Millipore MultiScreen MADVNOB50 plates using purified recombinant enzyme and a poly(rA)/oligo(dT)16 template-primer in a total volume of 50 μL. The assay constituents were 50 mM Tris/HCl, 50 mM NaCl, 1 mM EDTA, 6 mM MgCl2, 5 μM dTTP, 0.15 μCi [^3H] dTTP, 5 μg/ml poly (rA) pre annealed to 2.5 μg/ml oligo (dT)16 and a range of inhibitor concentrations in a final concentration of 10% DMSO. Reactions were initiated by adding 4 nM HIV-1 RT and after incubation at 37° C. for 30 min, they were stopped by the addition of 50 μl ice cold 20% TCA and allowed to precipitate at 4° C. for 30 min. The precipitates were collected by applying vacuum to the plate and sequentially washing with 3×200 μl of 10% TCA and 2×200 μl 70% EtOH. Finally, the plates were dried and radioactivity counted in a Packard TopCounter after the addition of 25 μl scintillation fluid per well. IC50'swere calculated by plotting % inhibition versus log10 inhibitor concentrations. Representative IC50 data has been included in Table 2.

[1] = test system: HXB2-strain of HIV in MT4 cells; assay: Antiviral assay: protection of HIV-infected MT4 cells from cell death (MTT); type: cell-based; conditions: Human immunodeficiency virus 1, 120 h, MT4 cells infected with HXB2-strain of HIV, 5 days
Protocol: Anti-HIV antiviral activity was assessed using an adaptation of the method of Pauwels et al. {Pauwels et al., 1988, J Virol Methods 20:309-321 }. The method is based on the ability of compounds to protect HIV-infected T lymphoblastoid cells (MT4 cells) from cell-death mediated by the infection. The endpoint of the assay was calculated as the concentration of compound at which the cell viability of the culture was preserved by 50% (‘50% inhibitory concentration’, IC50). The cell viability of a culture was determined by the uptake of soluble, yellow 3-[4,5-dimethylthiazol-2-yl]-2,5-diphenyltetrazolium bromide (MTT) and its reduction to a purple insoluble formazan salt. After solubilization, spectrophotometric methods were employed to measure the amount of formazan product. […]
A fresh solution of 5 mg/mL MTT was prepared in 0.01 M phosphate buffered saline, pH 7.2 and 20 microliters added to each culture. […] When the formazan deposit was fully solubilized by further mixing, the absorbance (OD) of the cultures was measured at 540 nm and 690 nm wavelength (690 nm readings were used as blanks for artifacts between wells). The percent protection for each treated culture was then calculated from the equation: […]

melting point [°C] | SMILES | IC50 (HIV-1 RT) [µM] | IC50 [1] [µM]
145 to 148 | CCc1c(Cc2ncc[nH]2)nn(CC)c1Oc1cc(Cl)cc(Cl)c1 [Cpd 88, 5-(3,5-Dichloro-phenoxy)-1,4-diethyl-3-(1H-imidazol-2-ylmethyl)-1H-pyrazole] |  | 
103 to 105.8 | CCn1nc(CCO)c(Cc2ccncc2)c1Oc1cc(Cl)cc(Cl)c1 [Cpd 85, 2-[5-(3,5-Dichloro-phenoxy)-1-ethyl-4-pyridin-4-ylmethyl-1H-pyrazol-3-yl]-ethanol] |  | 
118.9 to 120.9 | CCc1c(CC(=O)Nc2ccccc2)nn(C(C)C)c1Oc1cc(Cl)cc(Cl)c1 [Cpd 87, 2-[5-(3,5-Dichloro-phenoxy)-4-ethyl-1-isopropyl-1H-pyrazol-3-yl]-N-phenyl-acetamide] |  | 
142 to 145.2 | CCc1c(Cc2cnc[nH]2)nn(CC)c1Oc1cc(Cl)cc(Cl)c1 [Cpd 90, 5-(3,5-Dichloro-phenoxy)-1,4-diethyl-3-(3H-imidazol-4-ylmethyl)-1H-pyrazole] |  | 
112.2 to 115.9 | CCc1c(CC(=O)Nc2ccccc2)nn(CC)c1Oc1cc(Cl)cc(Cl)c1 [Cpd 86, 2-[5-(3,5-Dichloro-phenoxy)-1,4-iethyl-1H-pyrazol-3-yl]-N-phenyl-acetamide] |  | 

Further lines, the molecule ahead of its results:

SMILES | melting point [°C] | IC50 (HIV-1 RT) [µM] | IC50 [1] [µM]
CCc1c(CCN)nn(C(C)C)c1Oc1cc(Cl)cc(Cl)c1 [Cpd 48, 2-[5-(3,5-Dichloro-phenoxy)-4-ethyl-1-isopropyl-1H-pyrazol-3-yl]-ethylamine] |  | 1.07 | 
CCc1c(CO)nn(CC)c1Oc1cc(Cl)cc(Cl)c1 [Cpd 17, [5-(3,5-Dichloro-phenoxy)-1,4-diethyl-1H-pyrazol-3-yl]-methanol] |  | 1.66 | 0.0401
CCCc1c(CO)nn(CC)c1Oc1cc(Cl)cc(Cl)c1 [Cpd 22, [5-(3,5-Dichloro-phenoxy)-1-ethyl-4-propyl-1H-pyrazol-3-yl]-methanol] |  | 1.56 | 
CCc1c(CNC=O)nn(C(C)C)c1Oc1cc(Cl)cc(Cl)c1 [Cpd 40, N-[5-(3,5-Dichloro-phenoxy)-4-ethyl-1-isopropyl-1H-pyrazol-3-ylmethyl]-formamide] |  | 0.648 | 
CCc1c(CCO)nn(C(C)C)c1Oc1cc(Cl)cc(Cl)c1 [Cpd 36, 2-[5-(3,5-Dichloro-phenoxy)-4-ethyl-1-isopropyl-1H-pyrazol-3-yl]-ethanol] |  | 0.0383 | 
